Columns and labels:
Experiment in all cases: combination Emax (second highest fraction inhibited in the dose matrix, 72 h); higher = more inhibition; extreme values may be limits of the assay
[1] = system: 8305C (Thyroid Gland Carcinoma)
Method in brief: (§1)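 Bliss excess equals the observed combination effect minus the expected value EA + EB − EA·EB, where EA and EB are the effects of each agent alone. Combination Emax is the second-highest inhibition within the matrix. Inhibition was scaled from CellTiter-Glo 2.0 luminescence, with 0 set by vehicle wells and 1 by blank wells, after 72 hours of two-drug dosing of cells plated in 1536-well plates.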

[2] = system: CAL-54 (Kidney Carcinoma)
Method in brief: as §1

[3] = system: CAPAN-1 (Pancreatic Carcinoma)
Method in brief: as §1

[4] = system: EN (Endometrial Carcinoma)
Method in brief: as §1

[5] = system: HARA (Squamous Cell Lung Carcinoma)
Method in brief: as §1

[6] = system: HDLM-2 (Hodgkin's Lymphoma)
Method in brief: as §1

HMV-II (Melanoma) = system: HMV-II (Melanoma)
Method in brief: as §1

[7] = system: LU-139 (Small Cell Lung Carcinoma)
Method in brief: as §1

[8] = system: LoVo (Colorectal Carcinoma)
Method in brief: as §1

[9] = system: MDA-MB-468 (Breast Carcinoma)
Method in brief: as §1

NCI-H2461 (Mesothelioma) = system: NCI-H2461 (Mesothelioma)
Method in brief: as §1

[10] = system: OC-314 (Ovarian Carcinoma)
Method in brief: as §1

[11] = system: PCI-30 (Head and Neck Carcinoma)
Method in brief: as §1

[12] = system: RKO (Colorectal Carcinoma)
Method in brief: as §1

[13] = system: RPMI-6666 (Non-Cancerous)
Method in brief: as §1

[14] = system: RT-112 (Bladder Carcinoma)
Method in brief: as §1

SH-4 (Melanoma) = system: SH-4 (Melanoma)
Method in brief: as §1

[15] = system: SK-OV-3 (Ovarian Carcinoma)
Method in brief: as §1

[16] = system: SU-DHL-6 (B-Cell Non-Hodgkin's Lymphoma)
Method in brief: as §1

[17] = system: SW1271 (Small Cell Lung Carcinoma)
Method in brief: as §1

| SMILES | combination Emax [1] | combination Emax [2] | combination Emax [3] | combination Emax [4] | combination Emax [5] | combination Emax [6] | combination Emax (HMV-II (Melanoma)) | combination Emax [7] | combination Emax [8] | combination Emax [9] | combination Emax (NCI-H2461 (Mesothelioma)) | combination Emax [10] | combination Emax [11] | combination Emax [12] | combination Emax [13] | combination Emax [14] | combination Emax (SH-4 (Melanoma)) | combination Emax [15] | combination Emax [16] | combination Emax [17] |
| --- | --- | --- | --- | --- | --- | --- | --- | --- | --- | --- | --- | --- | --- | --- | --- | --- | --- | --- | --- | --- |
| Cc1cc2ncnn2cc1Nc1ncc2c(n1)n(C1CCOCC1)c(=O)n2C [AZD7648] + COc1cc([C@@H]2c3cc4c(cc3[C@@H](O[C@@H]3O[C@@H]5CO[C@@H](C)O[C@H]5[C@H](O)[C@H]3O)[C@H]3COC(=O)[C@H]23)OCO4)cc(OC)c1O [Etoposide] (first compound max 10 µM, 7x7, partner max 10 µM) | 0.465 | 0.731 | 0.492 | 0.481 | 0.627 | 0.715 | 0.655 | 0.875 | 0.704 | 0.657 | 0.553 | 0.978 | 0.553 | 0.829 | 0.958 | 0.798 | 0.492 | 0.399 | 0.991 | 0.475 |
| C[C@@H](Nc1cc(F)cc(F)c1)c1cc(C(=O)N(C)C)cc2c(=O)cc(N3CCOCC3)oc12 [AZD8186] + C1CN(CCC1(C(=O)N[C@@H](CCO)C2=CC=C(C=C2)Cl)N)C3=NC=NC4=C3C=CN4 [AZD5363] (first compound max 10 µM, 7x7, partner max 10 µM) | 0.369 | 0.683 | 0.204 | 0.536 | 0.467 | 0.235 | 0.229 | 0.0726 | 0.644 | 0.571 | 0.457 | 0.562 | 0.313 | 0.433 | 0.672 | 0.254 | 0.214 | 0.426 | 1 | 0.289 |
| C[C@@H](Nc1cc(F)cc(F)c1)c1cc(C(=O)N(C)C)cc2c(=O)cc(N3CCOCC3)oc12 [AZD8186] + CC(=O)c1c(C)c2cnc(Nc3ccc(N4CCNCC4)cn3)nc2n(C2CCCC2)c1=O [Palbociclib] (first compound max 10 µM, 7x7, partner max 10 µM) | 0.564 | 0.755 | 0.247 | 0.387 | 0.589 | 0.333 | 0.469 | 0.115 | 0.736 | 0.571 | 0.447 | 0.594 | 0.353 | 0.514 | 0.691 | 0.352 | 0.233 | 0.394 | 0.999 | 0.411 |
| C[C@@H](Oc1cc(-c2cnn(C3CCNCC3)c2)cnc1N)c1c(Cl)ccc(F)c1Cl [Crizotinib] + CC1=C(C(=CC=C1)Cl)NC(=O)C2=CN=C(S2)NC3=CC(=NC(=N3)C)N4CCN(CC4)CCO [Dasatinib] (first compound max 10 µM, 7x7, partner max 2 µM) | 0.843 | 0.888 | 0.285 | 0.389 | 0.757 | 0.226 | 0.768 | 0.688 | 0.505 | 0.776 | 0.594 | 0.838 | 0.721 | 0.771 | 0.686 | 0.974 | 0.556 | 0.391 | 1 | 0.714 |
| C[C@@H](Oc1cc(-c2cnn(C3CCNCC3)c2)cnc1N)c1c(Cl)ccc(F)c1Cl [Crizotinib] + Cn1cnc2c(F)c(Nc3ccc(Br)cc3Cl)c(C(=O)NOCCO)cc21 [Selumetinib] (first compound max 10 µM, 7x7, partner max 10 µM) | 0.801 | 0.565 | 0.571 | 0.401 | 0.59 | 0.193 | 0.934 | 0.684 | 0.557 | 0.673 | 0.56 | 0.494 | 0.238 | 0.982 | 0.672 | 0.819 | 0.91 | 0.249 | 1 | 0.896 |
| O=C(c1cc(Cc2n[nH]c(=O)c3ccccc23)ccc1F)N1CCN(C(=O)C2CC2)CC1 [Olaparib] + CC1(C)CCC(CN2CCN(c3ccc(C(=O)NS(=O)(=O)c4ccc(NCC5CCOCC5)c([N+](=O)[O-])c4)c(Oc4cnc5[nH]ccc5c4)c3)CC2)=C(c2ccc(Cl)cc2)C1 [Venetoclax] (first compound max 10 µM, 7x7, partner max 1 µM) | 0.232 | 0.177 | 0.225 | 0.29 | 0.137 | 0.322 | 0.129 | 0.655 | 0.206 | 0.314 | 0.203 | 0.188 | 0.173 | 0.191 | 0.72 | 0.0956 | 0.148 | 0.139 | 0.719 | 0.201 |
